# Assays:
# Collagenase 3 = Collagenase 3 (Homo sapiens, UniProt P45452); test: Inhibition of human MMP13 by FRET assay
# [1] = Solubility of compound at pH 4.5 by high throughput screening; format: physicochemical; conditions: buffer
# [2] = Solubility of compound at pH 7.4 by high throughput screening; format: physicochemical; conditions: buffer
smiles,measurement,setting,value
CNC(=O)[C@@H](NC(=O)c1ccc(-c2ccc(NC(C)=O)cc2)o1)C1CCCCC1,IC50,Collagenase 3,1.55 µM
same,solubility,[1],15 µg/mL
same,solubility,[2],17 µg/mL
CNC(=O)[C@@H](NC(=O)c1ccc(-c2ccc(S(=O)(=O)NC)cc2)o1)C1CCCCC1,solubility,[1],50 µg/mL
same,solubility,[2],52 µg/mL
CNC(=O)[C@@H](NC(=O)c1ccc(-c2ccc(OCc3ccn[nH]3)cn2)o1)C1CCCCC1,solubility,[1],39 µg/mL
same,solubility,[2],43 µg/mL
CNC(=O)[C@@H](NC(=O)c1ccc(-c2ccc(OCc3cc(C)n(C)n3)cn2)o1)C1CCCCC1,solubility,[1],> 57 µg/mL
same,solubility,[2],> 57 µg/mL
CNC(=O)[C@@H](NC(=O)c1ccc(-c2ccc(OCc3cccc(C)n3)cn2)o1)C1CCCCC1,solubility,[1],7.4 µg/mL
same,solubility,[2],3.4 µg/mL
CNC(=O)[C@@H](NC(=O)c1ccc(-c2ccc(OC)cc2)o1)C1CCCCC1,solubility,[1],1.4 µg/mL
same,solubility,[2],1.6 µg/mL
CNC(=O)[C@@H](NC(=O)c1ccc(-c2ccc(Cl)cc2)o1)C1CCCCC1,solubility,[1],1.5 µg/mL
same,solubility,[2],1.9 µg/mL
CNC(=O)[C@@H](NC(=O)c1ccc(-c2ccc(OCc3cc4ccccc4o3)cn2)o1)C1CCCCC1,solubility,[1],< 0.1 µg/mL
same,solubility,[2],0.1 µg/mL
CNC(=O)[C@@H](NC(=O)c1ccc(-c2ccc(OCc3cc(C)n[nH]3)cn2)o1)C1CCCCC1,solubility,[1],25 µg/mL
same,solubility,[2],31 µg/mL
CNC(=O)c1ccc(-c2ccc(C(=O)N[C@H](C(=O)NC)C3CCCCC3)o2)cc1,IC50,Collagenase 3,6 µM
same,solubility,[1],16 µg/mL
same,solubility,[2],17 µg/mL
CNC(=O)[C@@H](NC(=O)c1ccc(-c2ccc(NS(C)(=O)=O)cc2)o1)C1CCCCC1,solubility,[1],53 µg/mL
same,solubility,[2],61 µg/mL
CCOc1ccc(-c2ccc(C(=O)N[C@H](C(=O)NC)C3CCCCC3)o2)nc1,solubility,[1],33 µg/mL
same,solubility,[2],> 49 µg/mL
CNC(=O)[C@@H](NC(=O)c1ccc(-c2ccc(Oc3ccccc3)cc2)o1)C1CCCCC1,IC50,Collagenase 3,> 50 µM
CNC(=O)[C@@H](NC(=O)c1ccc(-c2ccc(Cl)cn2)o1)C1CCCCC1,solubility,[1],35 µg/mL
same,solubility,[2],37 µg/mL

# Source: ChEMBL document CHEMBL1155996, “Improving potency and selectivity of a new class of non-Zn-chelating MMP-13 inhibitors” (Bioorg Med Chem Lett, 2009)
